Key:
Format in all cases: cell-based
[1] = biological target: T1, human TLR5 (Homo sapiens, UniProt O60602); assay: TLR ligand screening: NF-κB SEAP reporter in HEK293 cells expressing TLR5; details: one concentration: NTR001 10 uM, Inosine 100 uM, triplicate, FIG. 2
T1 construct: expressed in transfected cells; host or cells: HEK293
Experimental: (§1) Toll-Like Receptor (TLR) Ligand Screening: In-vitro Activity of the PNPi, Guanosine and Inosine on Seven Different Human TLRs (TLR2, 3, 4, 5, 7, 8 and 9) as a Potential Agonist.
(§2) Method: TLR stimulation is tested by assessing NF-KB activation in HEK293 cells expressing a given TLR. The Secreted Embryonic Alkaline Phosphatase (SEAP) reporter is under the control of a promoter inducible by the transcription factor NF-κB.
(§3) This reporter gene allows the monitoring of signaling through the TLR, based on the activation of NF-κB. The compounds are evaluated at one concentration and compared to control ligands. This step is performed in triplicate.

[2] = biological target: T2, human TLR3 (Homo sapiens, UniProt O15455); assay: TLR ligand screening: NF-κB SEAP reporter in HEK293 cells expressing TLR3; details: one concentration: NTR001 10 uM, Inosine 100 uM, triplicate, FIG. 2
T2 construct: expressed in transfected cells; host or cells: HEK293
T2 sequence (O15455 24-904): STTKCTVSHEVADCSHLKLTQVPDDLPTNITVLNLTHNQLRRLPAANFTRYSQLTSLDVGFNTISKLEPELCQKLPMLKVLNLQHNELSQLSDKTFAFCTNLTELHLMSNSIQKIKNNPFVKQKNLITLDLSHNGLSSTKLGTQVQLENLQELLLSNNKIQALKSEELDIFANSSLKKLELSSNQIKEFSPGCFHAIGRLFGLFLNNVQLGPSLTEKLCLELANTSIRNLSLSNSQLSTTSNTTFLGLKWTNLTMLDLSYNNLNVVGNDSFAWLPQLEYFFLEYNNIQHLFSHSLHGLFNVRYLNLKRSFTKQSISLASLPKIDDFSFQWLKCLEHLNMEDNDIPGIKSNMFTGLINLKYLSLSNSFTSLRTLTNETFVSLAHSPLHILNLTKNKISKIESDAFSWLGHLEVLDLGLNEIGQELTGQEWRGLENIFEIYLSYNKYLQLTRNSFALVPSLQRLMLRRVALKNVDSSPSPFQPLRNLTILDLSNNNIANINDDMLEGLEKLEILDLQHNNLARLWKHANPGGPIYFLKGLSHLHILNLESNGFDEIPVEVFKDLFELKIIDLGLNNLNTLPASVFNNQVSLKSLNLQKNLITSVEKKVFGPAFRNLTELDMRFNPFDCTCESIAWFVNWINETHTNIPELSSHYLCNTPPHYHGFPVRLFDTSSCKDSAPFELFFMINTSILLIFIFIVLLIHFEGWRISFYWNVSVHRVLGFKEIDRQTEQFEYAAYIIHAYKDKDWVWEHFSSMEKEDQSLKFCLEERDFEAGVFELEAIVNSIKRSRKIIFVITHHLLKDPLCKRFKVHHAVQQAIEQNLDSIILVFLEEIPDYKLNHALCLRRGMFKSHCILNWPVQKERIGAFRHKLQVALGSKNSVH
Experimental: as §1, §2, §3

[3] = biological target: T3, human TLR4 (Homo sapiens, UniProt O00206); assay: TLR ligand screening: NF-κB SEAP reporter in HEK293 cells expressing TLR4; details: one concentration: Guanosine 100 uM, NTR001 10 uM, Inosine 100 uM; HEK293; triplicate; FIG. 2
T3 construct: expressed in transfected cells; host or cells: HEK293
T3 sequence (O00206 24-839): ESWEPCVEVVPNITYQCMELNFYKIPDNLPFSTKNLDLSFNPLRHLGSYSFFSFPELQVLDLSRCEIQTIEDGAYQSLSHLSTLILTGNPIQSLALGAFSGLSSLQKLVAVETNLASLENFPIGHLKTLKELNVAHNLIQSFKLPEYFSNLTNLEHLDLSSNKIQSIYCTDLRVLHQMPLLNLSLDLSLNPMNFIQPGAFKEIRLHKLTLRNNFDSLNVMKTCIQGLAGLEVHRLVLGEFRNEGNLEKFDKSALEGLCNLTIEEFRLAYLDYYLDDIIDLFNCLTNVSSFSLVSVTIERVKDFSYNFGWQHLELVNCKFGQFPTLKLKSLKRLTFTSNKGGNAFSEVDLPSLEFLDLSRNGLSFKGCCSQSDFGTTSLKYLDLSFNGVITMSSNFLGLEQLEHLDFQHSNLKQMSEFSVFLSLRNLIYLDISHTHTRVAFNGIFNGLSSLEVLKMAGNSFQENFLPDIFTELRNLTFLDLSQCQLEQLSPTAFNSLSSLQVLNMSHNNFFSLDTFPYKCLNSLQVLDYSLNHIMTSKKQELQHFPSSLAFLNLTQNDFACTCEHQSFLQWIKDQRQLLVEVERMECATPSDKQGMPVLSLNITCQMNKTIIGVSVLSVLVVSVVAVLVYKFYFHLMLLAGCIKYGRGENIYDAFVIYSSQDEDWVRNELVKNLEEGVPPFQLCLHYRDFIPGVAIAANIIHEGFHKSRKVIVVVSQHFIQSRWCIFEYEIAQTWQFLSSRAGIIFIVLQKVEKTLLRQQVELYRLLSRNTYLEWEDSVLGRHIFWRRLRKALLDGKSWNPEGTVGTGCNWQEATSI
T3 sequence (Q9Y6Y9 17-160 partner limits assumed): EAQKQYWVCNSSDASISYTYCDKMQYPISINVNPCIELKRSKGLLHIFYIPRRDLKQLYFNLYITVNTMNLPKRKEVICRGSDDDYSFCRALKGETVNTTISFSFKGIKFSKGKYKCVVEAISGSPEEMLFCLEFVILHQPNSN
Experimental: as §1, §2, §3

[4] = biological target: T4, human TLR9 (Homo sapiens, UniProt Q9NR96); assay: TLR ligand screening: NF-κB SEAP reporter in HEK293 cells expressing TLR9; details: one concentration: NTR001 10 uM, Inosine 100 uM, triplicate, FIG. 2
T4 construct: expressed in transfected cells; host or cells: HEK293
T4 sequence (Q9NR96 26-1032): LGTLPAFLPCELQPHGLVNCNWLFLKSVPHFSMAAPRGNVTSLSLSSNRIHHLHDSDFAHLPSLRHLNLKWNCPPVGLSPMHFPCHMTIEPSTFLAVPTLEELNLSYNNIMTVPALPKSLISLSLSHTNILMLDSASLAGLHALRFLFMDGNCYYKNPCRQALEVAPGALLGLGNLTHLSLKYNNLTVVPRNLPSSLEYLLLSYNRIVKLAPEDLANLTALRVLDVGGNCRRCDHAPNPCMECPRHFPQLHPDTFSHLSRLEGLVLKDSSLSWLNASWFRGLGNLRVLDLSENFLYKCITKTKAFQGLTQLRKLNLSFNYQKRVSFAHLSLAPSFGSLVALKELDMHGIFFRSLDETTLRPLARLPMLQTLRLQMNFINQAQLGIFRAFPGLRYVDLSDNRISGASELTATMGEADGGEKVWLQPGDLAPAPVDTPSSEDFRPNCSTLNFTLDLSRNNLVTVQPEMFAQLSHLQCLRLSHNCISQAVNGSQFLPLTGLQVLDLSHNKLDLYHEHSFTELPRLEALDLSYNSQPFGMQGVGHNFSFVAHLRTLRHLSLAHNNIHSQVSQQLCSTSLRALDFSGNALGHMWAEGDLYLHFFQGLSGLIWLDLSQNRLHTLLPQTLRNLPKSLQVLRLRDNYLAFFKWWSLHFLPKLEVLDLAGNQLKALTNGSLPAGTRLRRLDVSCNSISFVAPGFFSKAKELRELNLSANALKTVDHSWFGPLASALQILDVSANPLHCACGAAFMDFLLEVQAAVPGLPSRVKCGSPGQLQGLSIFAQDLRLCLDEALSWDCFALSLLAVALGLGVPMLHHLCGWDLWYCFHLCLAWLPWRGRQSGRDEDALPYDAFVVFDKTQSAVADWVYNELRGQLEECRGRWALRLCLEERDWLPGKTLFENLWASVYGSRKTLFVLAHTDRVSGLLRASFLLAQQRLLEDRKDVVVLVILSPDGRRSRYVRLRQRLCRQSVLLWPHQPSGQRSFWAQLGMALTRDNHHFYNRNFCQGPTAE
Experimental: as §1, §2, §3

T1 sequence (O60602 21-858): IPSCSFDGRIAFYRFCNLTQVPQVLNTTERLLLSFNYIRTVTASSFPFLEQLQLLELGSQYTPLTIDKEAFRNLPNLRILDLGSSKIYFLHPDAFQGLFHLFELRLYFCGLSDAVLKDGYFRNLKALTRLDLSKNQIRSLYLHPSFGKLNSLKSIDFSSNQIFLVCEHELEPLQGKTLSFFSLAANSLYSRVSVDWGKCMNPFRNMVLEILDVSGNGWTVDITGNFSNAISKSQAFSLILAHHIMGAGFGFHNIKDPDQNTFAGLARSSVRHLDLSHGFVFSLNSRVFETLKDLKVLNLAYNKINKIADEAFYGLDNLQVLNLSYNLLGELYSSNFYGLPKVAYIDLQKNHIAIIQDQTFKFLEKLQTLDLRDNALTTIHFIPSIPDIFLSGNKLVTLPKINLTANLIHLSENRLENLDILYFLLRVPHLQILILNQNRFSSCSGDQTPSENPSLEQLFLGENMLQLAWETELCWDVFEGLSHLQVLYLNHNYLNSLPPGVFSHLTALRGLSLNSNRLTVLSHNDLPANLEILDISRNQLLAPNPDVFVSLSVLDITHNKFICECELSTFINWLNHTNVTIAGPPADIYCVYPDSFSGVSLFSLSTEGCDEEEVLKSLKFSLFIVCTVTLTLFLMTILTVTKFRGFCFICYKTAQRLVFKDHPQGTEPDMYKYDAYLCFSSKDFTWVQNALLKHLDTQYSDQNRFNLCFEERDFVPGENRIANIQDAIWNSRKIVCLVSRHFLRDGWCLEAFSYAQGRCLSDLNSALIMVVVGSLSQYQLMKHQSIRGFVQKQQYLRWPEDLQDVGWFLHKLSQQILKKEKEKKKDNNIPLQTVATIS

OC[C@H]1O[C@@H](n2cnc3c(O)ncnc32)[C@H](O)[C@@H]1O [Inosine, inosine]
do not exhibit a stimulatory effect: stimulatory effect on human TLR5 (NF-κB activation) [1] | stimulatory effect on human TLR3 (NF-κB activation) [2] | stimulatory effect on human TLR4 (NF-κB activation) [3] | stimulatory effect on human TLR9 (NF-κB activation) [4]

O=c1[nH]cnc2c([C@@H]3N[C@H](CO)[C@@H](O)[C@H]3O)c[nH]c12 [NTR001, 7-[(2S,3S,4R,5R)-3,4-dihydroxy-5-(hydroxymethyl)-2-pyrrolidinyl]-1,5-dihyro-4-H-pyrrolo-[3,2-d]pyrimidin-4-one]
do not exhibit a stimulatory effect: stimulatory effect on human TLR5 (NF-κB activation) [1] | stimulatory effect on human TLR3 (NF-κB activation) [2] | stimulatory effect on human TLR4 (NF-κB activation) [3] | stimulatory effect on human TLR9 (NF-κB activation) [4]

Reference: patent publication US20170209447A1, “Use of PNP Inhibitor to Treat Relapse of Malignancy after Hematopoietic Stem Cell Transplant” (Nitor Therapeutics, priority 2014, published 2017)
